In ChEMBL document CHEMBL1127963, “Vasoactive eicosanoids: Synthesis of 12,20-dihydroxyeicosa-5(Z),8(Z),10(E),14(Z)-tetraenoic acid via a novel chiral bis-lactol” (1994) one finds Relation data, which are given here for one compound.

SMILES strings stand for the structures.

For this assay, the species on record is Canis familiaris. Put plainly: Compound was tested relaxation of contracted coronary arteries of canine at 5 x 10-e M (p<0.01). Type of assay: functional, Canis lupus familiaris.

For `O=C(O)CCC/C=C\C/C=C\C=C\C(O)C/C=C\CCCCCO` (stereo unspecified), the Relation is 48%.
